According to US9353089B2, “Compositions and methods for the treatment of malaria” (Saint Louis University, priority 2013, dated 2016):

Legend:
[1] = HLM metabolic stability assay; type: in vitro ADME; settings: pH 7.4, human liver microsomes, read-out: HLM t1/2
Description: (§1) In this protocol, the metabolic stability of compounds at 1 μM was determined in Mouse Liver Microsome (MLM), rat liver microsomes (RLM) or human liver microsomes (HLM). […]. After incubation at 37° C. for a specific time period (0, 5, 10, 20 and 30 min), the reaction was terminated by the addition of 200 μL ice cold acetonitrile containing internal standard (100 ng/mL) after 100 μL aliquots of reaction mixture was removed. The quenched reaction mixtures were centrifuged at 3200 rpm for 5 min, and 100 μL of the supernatant were transferred to 96-well deep plate. The samples in 96 well plate were analyzed by LC-MS/MS using an Applied Biosystems-Sciex model API 3000 mass spectrometer. The data were analyzed using the following equations. […]

[2] = MLM metabolic stability assay; type: in vitro ADME; settings: pH 7.4, mouse liver microsomes, read-out: MLM t1/2
Description: as §1

## COc1ccc(C2(c3ccc(OC)cc3)NC(=N)N(C3CCOCC3)C2=O)cc1 [Example 176, 2-imino-5,5-bis(4-methoxyphenyl)-3-(oxan-4-yl)-imidazolidin-4-one]
[1]
  half-life at 1 μM: 36 min

## COc1ccc(C2(c3ccc(OC)cc3)NC(=N)N(C3CCN(C(=O)OC(C)(C)C)CC3)C2=O)cc1 [Example 206, tert-butyl 4-[2-imino-4,4-bis(4-methoxyphenyl)-5-oxoimidazolidin-1-yl]piperidine-1-carboxylate]
[2]
  half-life at 1 μM: 26 min
